Measurements as given in US20230250066A1, “HERBICIDAL CINNOLINE DERIVATIVES” (SYNGENTA CROP PROTECTION AG, priority 2020, published 2023).

How the values were obtained:
Format in all cases: in vivo
[1] = test system: Amaranthus retoflexus (AMARE); assay: Pre-emergence herbicidal test; conditions: 1000 g/ha, evaluated after 13 days
Setaria faberi (SETFA) [2] = assay: Pre-emergence herbicidal test; conditions: 1000 g/ha, evaluated after 13 days
[3] = test system: Echinochloa crus-galli (ECHCG); assay: Pre-emergence herbicidal test; conditions: 1000 g/ha, evaluated after 13 days
[4] = test system: Ipomoea hederacea (IPOHE); assay: Pre-emergence herbicidal test; conditions: 1000 g/ha, evaluated after 13 days
[5] = test system: Abutilon theophrasti (ABUTH); assay: Pre-emergence herbicidal test; conditions: 1000 g/ha, evaluated after 13 days
Zea mays (ZEAMX) [6] = assay: Pre-emergence herbicidal test; conditions: 1000 g/ha, evaluated after 13 days
[7] = test system: Abutilon theophrasti (ABUTH); assay: Post-emergence herbicidal test; conditions: 1000 g/ha unless otherwise stated, evaluated after 13 days
Description: (§1) Seeds of a variety of test species are sown in standard soil in pots (Amaranthus retoflexus (AMARE), Solanum nigrum (SOLNI), Setaria faberi (SETFA), Lolium perenne (LOLPE), Echinochloa crus-galli (ECHCG), Ipomoea hederacea (IPOHE), Abutilon theophrasti (ABUTH), Zea mays (ZEAMX)). After 8 days cultivation under controlled conditions in a glasshouse (at 24° C./16° C., day/night; 14 hours light; 65% humidity), the plants are sprayed with an aqueous spray solution derived from the formulation of the technical active ingredient in acetone/water (50:50) solution containing 0.5% Tween 20 (polyoxyethelyene sorbitan monolaurate, CAS RN 9005-64-5). Compounds are applied at 1000 g/ha unless otherwise stated. The test plants are then grown in a glasshouse under controlled conditions in a glasshouse (at 24° C./16° C., day/night; 14 hours light; 65% humidity) and watered twice daily. After 13 days the test is evaluated for the percentage damage caused to the plant. The biological activities are shown in the following table on a five-point scale (5=81-100%; 4=61-80%; 3=41-60%; 2=21-40%; 1=10-20%; 0=0%;−=not tested).

[8] = test system: Amaranthus retoflexus (AMARE); assay: Post-emergence herbicidal test; conditions: 1000 g/ha unless otherwise stated, evaluated after 13 days
Description: as §1

[9] = test system: Echinochloa crus-galli (ECHCG); assay: Post-emergence herbicidal test; conditions: 1000 g/ha unless otherwise stated, evaluated after 13 days
Description: as §1

[10] = test system: Ipomoea hederacea (IPOHE); assay: Post-emergence herbicidal test; conditions: 1000 g/ha unless otherwise stated, evaluated after 13 days
Description: as §1

Setaria faberi (SETFA) [11] = assay: Post-emergence herbicidal test; conditions: 1000 g/ha unless otherwise stated, evaluated after 13 days
Description: as §1

Zea mays (ZEAMX) [12] = assay: Post-emergence herbicidal test; conditions: 1000 g/ha unless otherwise stated, evaluated after 13 days
Description: as §1

SMILES | percentage damage caused to the plant, five-point scale, AMARE [1] | percentage damage caused to the plant, five-point scale, SETFA (Setaria faberi (SETFA) [2]) | percentage damage caused to the plant, five-point scale, ECHCG [3] | percentage damage caused to the plant, five-point scale, IPOHE [4] | percentage damage caused to the plant, five-point scale, ABUTH [5] | percentage damage caused to the plant, five-point scale, ZEAMX (Zea mays (ZEAMX) [6]) | percentage damage caused to the plant, ABUTH (five-point scale) [7] | percentage damage caused to the plant, AMARE (five-point scale) [8] | percentage damage caused to the plant, ECHCG (five-point scale) [9] | percentage damage caused to the plant, IPOHE (five-point scale) [10] | percentage damage caused to the plant, SETFA (five-point scale) (Setaria faberi (SETFA) [11]) | percentage damage caused to the plant, ZEAMX (five-point scale) (Zea mays (ZEAMX) [12])
CC(C)Cc1cc(S(C)(=O)=O)c2c(=O)c(C(=O)O)nn(-c3ccc(OC(F)(F)F)cc3)c2c1 [Compound P14, 7-isobutyl-5-methylsulfonyl-4-oxo-1-[4-(trifluoromethoxy)phenyl]cinnoline-3-carboxylic acid] | 1 (1=10-20%) | 1 (1=10-20%) | 1 (1=10-20%) | 0 (0=0%) | 1 (1=10-20%) | 1 (1=10-20%) | 1 (1=10-20%) | 1 (1=10-20%) | 0 (0=0%) | 0 (0=0%) | 0 (0=0%) | 0 (0=0%)
CC(C)Cc1ccc2c(c1S(C)(=O)=O)c(=O)c(C(=O)O)nn2-c1ccc(OC(F)(F)F)cc1 [Compound P15, 6-isobutyl-5-methylsulfonyl-4-oxo-1-[4-(trifluoromethoxy)phenyl]cinnoline-3-carboxylic acid] | 1 (1=10-20%) | 1 (1=10-20%) | 1 (1=10-20%) | 0 (0=0%) | 1 (1=10-20%) | 0 (0=0%) | 1 (1=10-20%) | 1 (1=10-20%) | 1 (1=10-20%) | 0 (0=0%) | 1 (1=10-20%) | 1 (1=10-20%)
COc1ccc2c(c1S(C)(=O)=O)c(=O)c(C(=O)O)nn2-c1ccc(OC(F)(F)F)cc1 [Compound P18, 6-methoxy-5-methylsulfonyl-4-oxo-1-[4-(trifluoromethoxy)phenyl]cinnoline-3-carboxylic acid] | 0 (0=0%) | 0 (0=0%) | 1 (1=10-20%) | 0 (0=0%) | 0 (0=0%) | 1 (1=10-20%) | 1 (1=10-20%) | 1 (1=10-20%) | 1 (1=10-20%) | 0 (0=0%) | 2 (2=21-40%) | 1 (1=10-20%)
COc1cc(S(C)(=O)=O)c2c(=O)c(C(=O)O)nn(-c3ccc(OC(F)(F)F)cc3)c2c1 [Compound P19, 7-methoxy-5-methylsulfonyl-4-oxo-1-[4-(trifluoromethoxy)phenyl]cinnoline-3-carboxylic acid] | 1 (1=10-20%) | 5 (5=81-100%) | 2 (2=21-40%) | 0 (0=0%) | 0 (0=0%) | 0 (0=0%) | 1 (1=10-20%) | 1 (1=10-20%) | 2 (2=21-40%) | 1 (1=10-20%) | 3 (3=41-60%) | 1 (1=10-20%)
CS(=O)(=O)c1c(F)ccc2c1c(=O)c(C(=O)O)nn2-c1ccc(OC(F)(F)F)cc1 [Compound P20, 6-fluoro-5-methylsulfonyl-4-oxo-1-[4-(trifluoromethoxy)phenyl]cinnoline-3-carboxylic acid] | 0 (0=0%) | 0 (0=0%) | 0 (0=0%) | 0 (0=0%) | 0 (0=0%) | 0 (0=0%) | 0 (0=0%) | 0 (0=0%) | 0 (0=0%) | 0 (0=0%) | 0 (0=0%) | 0 (0=0%)
CS(=O)(=O)c1cc(F)cc2c1c(=O)c(C(=O)O)nn2-c1ccc(OC(F)(F)F)cc1 [Compound P21, 7-fluoro-5-methylsulfonyl-4-oxo-1-[4-(trifluoromethoxy)phenyl]cinnoline-3-carboxylic acid] | 0 (0=0%) | 4 (4=61-80%) | 2 (2=21-40%) | 0 (0=0%) | 0 (0=0%) | 1 (1=10-20%) | 0 (0=0%) | 0 (0=0%) | 2 (2=21-40%) | 0 (0=0%) | 2 (2=21-40%) | 0 (0=0%)
CCOC(=O)c1nn(-c2ccc(OC(F)(F)F)cc2)c2cccc(S(=O)(=O)CC)c2c1=O [Compound P22, ethyl 5-ethylsulfonyl-4-oxo-1-[4-(trifluoromethoxy)phenyl]cinnoline-3-carboxylate] | 0 (0=0%) | 0 (0=0%) | 0 (0=0%) | 0 (0=0%) | 0 (0=0%) | 0 (0=0%) | 1 (1=10-20%) | 1 (1=10-20%) | 1 (1=10-20%) | 1 (1=10-20%) | 1 (1=10-20%) | 0 (0=0%)
